Data reported in ChEMBL document CHEMBL4334514, “A Near-Complete Series of Four Atropisomeric Jozimine A2-Type Naphthylisoquinoline Dimers with Antiplasmodial and Cytotoxic Activities and Related Alkaloids from Ancistrocladus abbreviatus” (J Nat Prod, 2019).

How the values were obtained:
HT-29 = experiment: Cytotoxicity against human HT-29 cells assessed as reduction of cell viability measured after 16 hrs by crystal violet staining assay; assay type: functional, cell-based
Plasmodium falciparum [1] = experiment: Antiprotozoal activity against chloroquine-sensitive Plasmodium falciparum NF54 assessed as growth inhibition incubated for 48 hrs by [3H]-hypoxanthine incorporation assay; assay type: functional, organism-based
Trypanosoma cruzi = experiment: Antiprotozoal activity against Trypanosoma cruzi Tulahuen C4 amastigotes infected in rat L6 cells assessed as growth inhibition after 96 by photometric analysis; assay type: functional, organism-based
L6 = experiment: Cytotoxicity against rat L6 cells assessed as reduction in cell viability after 72 hrs by Alamar blue dye-based fluorometric analysis
[2] = Selectivity index, ratio of IC50 for cytotoxicity against rat L6 cells to IC50 for antiprotozoal activity against Plasmodium falciparum NF54; assay type: toxicity, cell-based
Leishmania donovani = experiment: Antiprotozoal activity against Leishmania donovani MHOM/ET/67/L82 axenic amastigotes assessed as growth inhibition after 72 hrs by Alamar Blue dye-based fluorometric analysis; assay type: functional, organism-based
[3] = test system: Trypanosoma brucei rhodesiense; experiment: Antiprotozoal activity against Trypanosoma brucei rhodesiense STIB900 trypomastigotes assessed as growth inhibition after 72 hrs by Alamar Blue dye-based fluorometric analysis; assay type: functional, organism-based
MM1.S = experiment: Cytotoxicity against human MM1S cells assessed as reduction of cell viability incubated for overnight by MTT assay; assay type: functional, cell-based
HT-1080 = experiment: Cytotoxicity against human HT1080 cells assessed as reduction of cell viability measured after 16 hrs by crystal violet staining assay; assay type: functional, cell-based; settings: HT-1080, 16 h
Plasmodium falciparum [4] = experiment: Antiprotozoal activity against asexual erythrocytic form of chloroquine-sensitive Plasmodium falciparum NF54 clone A1A9 assessed as growth inhibition incubated for 42 hrs by [3H]-hypoxanthine incorporation assay; assay type: functional, organism-based
[5] = Leishmania donovani, MHOM/ET/67/L82, 72 h
[6] = Trypanosoma cruzi, Tulahuen C4, L6

| IC50 (Trypanosoma cruzi) | IC50 [3] | SMILES | IC50 (Plasmodium falciparum [1]) | IC50 (L6) | Ratio IC50 [2] | also measured |
| --- | --- | --- | --- | --- | --- | --- |
|  |  | COc1cccc2c(-c3ccc4c(c3O)[C@@H](C)N(C)[C@@H](C)C4)c(C)cc(OC)c12 |  |  |  | IC50 (HT-29): Not Active |
|  |  | COc1cc(O)c(-c2c(C)cc(OC)c3c(OC)cccc23)c2c1[C@H](C)N[C@H](C)C2 |  |  |  | IC50 (HT-29): Not Active |
|  |  | COc1cc(O)c2c(c1-c1c(C)cc(O)c3c(OC)cccc13)C[C@H](C)N[C@H]2C |  |  |  | IC50 (HT-29): Not Active |
| 14.9 µM | 0.49 µM | COc1cccc2c(-c3ccc4c(c3O)[C@@H](C)N[C@H](C)C4)c(C)c(-c3c(C)c(-c4ccc5c(c4O)[C@@H](C)N[C@H](C)C5)c4cccc(OC)c4c3O)c(O)c12 (stereo in doubt; 1a) | 0.012 µM | 7.9 µM | 660 | IC50 (Leishmania donovani; [5]): > 100 µM; IC50 (HT-29; read-out: IC50): > 50 µM |
| 17.1 µM | 0.32 µM | COc1cccc2c(-c3ccc4c(c3O)[C@@H](C)N[C@H](C)C4)c(C)c(-c3c(C)c(-c4ccc5c(c4O)[C@@H](C)N[C@H](C)C5)c4cccc(OC)c4c3O)c(O)c12 (stereo in doubt; 1b) | 0.021 µM | 4.3 µM | 206 |  |
| 8.1 µM | 0.16 µM | COc1cccc2c(-c3ccc4c(c3O)[C@@H](C)N[C@H](C)C4)c(C)c(-c3c(C)c(-c4ccc5c(c4O)[C@@H](C)N[C@H](C)C5)c4cccc(OC)c4c3O)c(O)c12 (stereo in doubt; 1c) | 0.055 µM | 2.3 µM | 41.6 | IC50 (Leishmania donovani): 65.2 µM |
| 13.7 µM | 0.82 µM | COc1cccc2c(-c3ccc4c(c3O)[C@@H](C)N[C@H](C)C4)c(C)c(-c3c(C)c(-c4ccc5c(c4O)[C@@H](C)N[C@H](C)C5)c4cccc(OC)c4c3O)c(O)c12 (stereo in doubt; 1d) [listing 1 of 2 here] |  | 15.9 µM | 11400 | IC50 (MM1.S): 5 µM; IC50 (Leishmania donovani): 80.2 µM; IC50 (HT-29; read-out: IC50): 12 µM; IC50 (HT-1080): 9 µM |
|  |  | COc1cccc2c(-c3ccc4c(c3O)[C@@H](C)N[C@H](C)C4)c(C)c(-c3c(C)c(-c4ccc5c(c4O)[C@@H](C)N[C@H](C)C5)c4cccc(OC)c4c3O)c(O)c12 (stereo in doubt; 1d) [listing 2 of 2 here] |  |  |  | inhibition (HT-29): Dose-dependent effect |
|  |  | COc1cccc2c(-c3ccc4c(c3O)[C@@H](C)N[C@H](C)C4)c(C)cc(O)c12 (stereo in doubt; 4a) |  | 9.1 µM | 13.7 | IC50 (Plasmodium falciparum [1]; Plasmodium falciparum, NF54): 0.67 µM; IC50 (Trypanosoma cruzi; [6]): 24.4 µM; IC50 (Leishmania donovani; [5]): > 100 µM; IC50 ([3]; Trypanosoma brucei, STIB900, 72 h): 6.1 µM |
| 45.1 µM | 4.8 µM | COc1cccc2c(-c3ccc4c(c3O)[C@@H](C)N[C@H](C)C4)c(C)cc(O)c12 (stereo in doubt; 4b) | 0.85 µM | 44.8 µM | 52.7 |  |
|  |  | O=C(Cn1ccnc1[N+](=O)[O-])NCc1ccccc1 [BENZNIDAZOLE] |  |  |  | IC50 (Trypanosoma cruzi; [6]): 2.6 µM |
|  |  | COc1cccc2c(-c3ccc4c(c3O)[C@@H](C)N[C@H](C)C4)c(C)cc(OC)c12 [DIONCOPHYLLINE A] |  |  |  | IC50 (Plasmodium falciparum [4]): 3.8 µM |
|  |  | CCCCCCCCCCCCCCCCOP(=O)([O-])OCC[N+](C)(C)C [MILTEFOSINE] |  |  |  | IC50 (Leishmania donovani; [5]): 0.8 µM |
